Assay results as given in the CheMixHub ionic liquid set.

Assay: xn = mol fraction of the nth substance listed
Conditions: for electrical conductivity: 101 kPa; for viscosity: 100 kPa

CCCCCCCCCCCCOS(=O)(=O)[O-].[Na+] + O
Conditions | electrical conductivity [S/m] | viscosity [mPa·s]
283.1 K, x1 = 6.483e-05 | 0.01714 | –
283.1 K, x1 = 6.941e-05 | 0.01821 | –
283.1 K, x1 = 7.476e-05 | 0.01971 | –
283.1 K, x1 = 8.126e-05 | 0.02131 | –
283.1 K, x1 = 8.852e-05 | 0.02313 | –
283.1 K, x1 = 9.769e-05 | 0.02537 | –
283.1 K, x1 = 0.0001027 | 0.02665 | –
283.1 K, x1 = 0.0001088 | 0.02815 | –
283.1 K, x1 = 0.0001153 | 0.02986 | –
283.1 K, x1 = 0.0001225 | 0.03168 | –
283.1 K, x1 = 0.000131 | 0.03381 | –
283.1 K, x1 = 0.0001413 | 0.03617 | –
283.1 K, x1 = 0.0001516 | 0.03884 | –
283.1 K, x1 = 0.0001654 | 0.04066 | –
283.1 K, x1 = 0.0001807 | 0.04228 | –
283.1 K, x1 = 0.0001998 | 0.044 | –
283.1 K, x1 = 0.0002228 | 0.04584 | –
283.1 K, x1 = 0.0002339 | 0.0467 | –
283.1 K, x1 = 0.0002461 | 0.04778 | –
283.1 K, x1 = 0.0002595 | 0.04865 | –
283.1 K, x1 = 0.0002745 | 0.04994 | –
283.1 K, x1 = 0.0002921 | 0.05135 | –
288.15 K, x1 = 6.595e-05 | 0.01969 | –
288.15 K, x1 = 7.09e-05 | 0.02119 | –
288.15 K, x1 = 7.663e-05 | 0.02279 | –
288.15 K, x1 = 8.276e-05 | 0.0245 | –
288.15 K, x1 = 9e-05 | 0.02696 | –
288.15 K, x1 = 9.917e-05 | 0.02952 | –
288.15 K, x1 = 0.0001045 | 0.03102 | –
288.15 K, x1 = 0.0001107 | 0.03273 | –
288.15 K, x1 = 0.0001168 | 0.03465 | –
288.15 K, x1 = 0.0001244 | 0.03679 | –
288.15 K, x1 = 0.0001328 | 0.03924 | –
288.15 K, x1 = 0.0001424 | 0.04191 | –
288.15 K, x1 = 0.0001538 | 0.04459 | –
288.15 K, x1 = 0.0001668 | 0.0463 | –
288.15 K, x1 = 0.0001829 | 0.04792 | –
288.15 K, x1 = 0.0002013 | 0.04975 | –
288.15 K, x1 = 0.0002246 | 0.05212 | –
288.15 K, x1 = 0.0002357 | 0.05319 | –
288.15 K, x1 = 0.0002468 | 0.05427 | –
288.15 K, x1 = 0.0002602 | 0.05567 | –
288.15 K, x1 = 0.0002748 | 0.05707 | –
288.15 K, x1 = 0.0002912 | 0.05868 | –
293.15 K, x1 = 1.802e-05 | – | 0.968
293.15 K, x1 = 3.604e-05 | – | 0.97
293.15 K, x1 = 5.406e-05 | – | 0.971
293.15 K, x1 = 6.553e-05 | 0.02214 | –
293.15 K, x1 = 6.973e-05 | 0.02364 | –
293.15 K, x1 = 7.207e-05 | – | 0.974
293.15 K, x1 = 7.508e-05 | 0.02545 | –
293.15 K, x1 = 8.157e-05 | 0.02759 | –
293.15 K, x1 = 8.883e-05 | 0.03004 | –
293.15 K, x1 = 9.009e-05 | – | 0.978
293.15 K, x1 = 9.76e-05 | 0.03303 | –
293.15 K, x1 = 0.000103 | 0.03463 | –
293.15 K, x1 = 0.0001081 | – | 0.981
293.15 K, x1 = 0.0001091 | 0.03666 | –
293.15 K, x1 = 0.0001152 | 0.03858 | –
293.15 K, x1 = 0.0001228 | 0.04104 | –
293.15 K, x1 = 0.0001261 | – | 0.984
293.15 K, x1 = 0.0001312 | 0.04371 | –
293.15 K, x1 = 0.0001408 | 0.0468 | –
293.15 K, x1 = 0.0001441 | – | 0.986
293.15 K, x1 = 0.0001522 | 0.04969 | –
293.15 K, x1 = 0.0001622 | – | 0.988
293.15 K, x1 = 0.0001649 | 0.05162 | –
293.15 K, x1 = 0.0001802 | – | 0.989
293.15 K, x1 = 0.0001805 | 0.05366 | –
293.15 K, x1 = 0.0001982 | – | 0.992
293.15 K, x1 = 0.0001989 | 0.05581 | –
293.15 K, x1 = 0.0002162 | – | 0.993
293.15 K, x1 = 0.0002219 | 0.0586 | –
293.15 K, x1 = 0.0002326 | 0.05979 | –
293.15 K, x1 = 0.0002342 | – | 0.993
293.15 K, x1 = 0.0002441 | 0.06118 | –
293.15 K, x1 = 0.0002522 | – | 0.995
293.15 K, x1 = 0.0002575 | 0.06269 | –
293.15 K, x1 = 0.0002702 | – | 0.996
293.15 K, x1 = 0.000272 | 0.06419 | –
293.15 K, x1 = 0.0002889 | 0.06613 | –
298.15 K, x1 = 1.802e-05 | – | 0.853
298.15 K, x1 = 3.604e-05 | – | 0.854
298.15 K, x1 = 5.406e-05 | – | 0.855
298.15 K, x1 = 7.207e-05 | – | 0.856
298.15 K, x1 = 9.009e-05 | – | 0.857
298.15 K, x1 = 0.0001081 | – | 0.857
298.15 K, x1 = 0.0001261 | – | 0.858
298.15 K, x1 = 0.0001441 | – | 0.86
298.15 K, x1 = 0.0001622 | – | 0.862
298.15 K, x1 = 0.0001802 | – | 0.863
298.15 K, x1 = 0.0001982 | – | 0.864
298.15 K, x1 = 0.0002162 | – | 0.865
298.15 K, x1 = 0.0002342 | – | 0.866
298.15 K, x1 = 0.0002522 | – | 0.866
